The values below come from article PMC10551024, “A deazariboflavin chromophore kinetically stabilizes reduced FAD state in a bifunctional cryptochrome” (Scientific Reports, 2023).

Common to all, as to type: binding
Experiment [1] concerns the target T1, CraCRY (Chlamydomonas reinhardtii, UniProt A8J8W0).
T1 construct: gene CHLRE_06g278251v5; lacks C-terminal tail (497-595); His-tagged, pET-28a(+), E. coli BL21(DE3); TALON and heparin purified
T1 sequence (A8J8W0 1-496): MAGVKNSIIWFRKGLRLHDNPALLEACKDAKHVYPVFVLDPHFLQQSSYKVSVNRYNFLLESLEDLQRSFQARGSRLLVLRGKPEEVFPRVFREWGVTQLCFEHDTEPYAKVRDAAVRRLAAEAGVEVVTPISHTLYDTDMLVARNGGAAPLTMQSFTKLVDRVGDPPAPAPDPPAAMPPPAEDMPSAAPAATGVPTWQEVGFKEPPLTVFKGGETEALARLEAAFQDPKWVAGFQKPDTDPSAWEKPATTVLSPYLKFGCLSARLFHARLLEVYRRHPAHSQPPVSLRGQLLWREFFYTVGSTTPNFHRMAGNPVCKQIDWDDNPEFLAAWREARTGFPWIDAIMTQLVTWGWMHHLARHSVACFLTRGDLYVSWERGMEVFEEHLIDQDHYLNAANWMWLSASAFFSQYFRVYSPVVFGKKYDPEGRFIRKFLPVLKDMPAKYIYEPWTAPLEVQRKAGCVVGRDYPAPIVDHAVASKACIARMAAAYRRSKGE
The experiment can be described thus: UV/vis spectroscopy of purified holoprotein; xanthine/xanthine oxidase redox titration. The settings on record: co-purified FAD; pH 7.0, Safranin T reference.

Experiment [2] deals with T2, Xl64 (Xenopus laevis, UniProt Q9I910).
T2 construct: gene Xl64phr; recombinant, pET-28a(+), E. coli C41(DE3)/pLysS
T2 sequence (Q9I910 1-526): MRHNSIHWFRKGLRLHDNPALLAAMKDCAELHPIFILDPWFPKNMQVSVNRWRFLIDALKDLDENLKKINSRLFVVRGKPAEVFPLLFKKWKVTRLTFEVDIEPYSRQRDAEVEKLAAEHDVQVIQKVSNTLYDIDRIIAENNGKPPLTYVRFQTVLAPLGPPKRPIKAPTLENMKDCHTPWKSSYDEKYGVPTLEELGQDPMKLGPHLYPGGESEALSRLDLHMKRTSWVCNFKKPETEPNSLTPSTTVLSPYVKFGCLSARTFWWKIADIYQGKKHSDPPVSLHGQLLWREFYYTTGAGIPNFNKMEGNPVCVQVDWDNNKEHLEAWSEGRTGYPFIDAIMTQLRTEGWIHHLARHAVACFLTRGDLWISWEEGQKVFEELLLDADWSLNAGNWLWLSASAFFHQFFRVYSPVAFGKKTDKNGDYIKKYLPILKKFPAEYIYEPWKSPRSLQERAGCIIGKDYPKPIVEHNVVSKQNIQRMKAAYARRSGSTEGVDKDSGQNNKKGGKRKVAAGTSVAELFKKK
The description is as above. Particulars: co-purified FAD; pH 7.0, Safranin T reference.

For experiment [3], the target named is T3, At64 (Arabidopsis thaliana, UniProt O48652).
T3 construct: gene UVR3; recombinant, pET-28a(+), E. coli C41(DE3)/pLysS
T3 sequence (O48652 20-556): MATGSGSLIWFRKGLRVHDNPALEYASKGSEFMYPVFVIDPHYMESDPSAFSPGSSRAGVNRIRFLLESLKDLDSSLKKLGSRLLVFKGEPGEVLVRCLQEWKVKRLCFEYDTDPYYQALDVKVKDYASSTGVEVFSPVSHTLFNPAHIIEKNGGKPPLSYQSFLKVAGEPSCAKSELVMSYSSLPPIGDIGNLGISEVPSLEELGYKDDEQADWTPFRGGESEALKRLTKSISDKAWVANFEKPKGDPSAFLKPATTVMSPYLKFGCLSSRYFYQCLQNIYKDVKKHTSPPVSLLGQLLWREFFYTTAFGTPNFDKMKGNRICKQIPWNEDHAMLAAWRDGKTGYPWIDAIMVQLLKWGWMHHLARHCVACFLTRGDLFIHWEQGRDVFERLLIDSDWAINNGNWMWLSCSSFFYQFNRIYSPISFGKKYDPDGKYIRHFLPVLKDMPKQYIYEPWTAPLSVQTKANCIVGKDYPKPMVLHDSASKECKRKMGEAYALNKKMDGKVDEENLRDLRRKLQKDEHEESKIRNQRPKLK
The experiment is described as above. Particulars: co-purified FAD; pH 7.0, Safranin T reference.

Experiment [4] concerns the target T4, At64 (Arabidopsis thaliana, UniProt O48652, DEL46-53).
T4 construct: gene UVR3; recombinant, pET-28a(+), E. coli C41(DE3)/pLysS
T4 sequence (O48652 with tags, fused parts or gaps DEL46-53): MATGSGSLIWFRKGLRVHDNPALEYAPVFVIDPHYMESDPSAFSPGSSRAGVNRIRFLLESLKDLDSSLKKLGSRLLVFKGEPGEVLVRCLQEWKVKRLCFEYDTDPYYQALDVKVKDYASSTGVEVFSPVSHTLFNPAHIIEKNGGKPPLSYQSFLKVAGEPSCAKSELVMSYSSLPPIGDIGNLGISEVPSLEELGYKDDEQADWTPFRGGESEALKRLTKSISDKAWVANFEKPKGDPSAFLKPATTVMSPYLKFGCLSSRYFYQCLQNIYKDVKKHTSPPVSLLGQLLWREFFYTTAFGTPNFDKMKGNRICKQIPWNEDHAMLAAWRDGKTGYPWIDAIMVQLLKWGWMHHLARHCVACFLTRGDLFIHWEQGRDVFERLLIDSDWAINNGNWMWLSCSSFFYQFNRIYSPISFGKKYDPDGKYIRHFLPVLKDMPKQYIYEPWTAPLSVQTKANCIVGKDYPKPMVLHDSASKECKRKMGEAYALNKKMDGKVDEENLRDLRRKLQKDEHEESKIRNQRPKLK
The experiment is described as above. The settings on record: At64-ΔExLoop, extended loop Ser46 to Pro53 deleted; co-purified FAD; pH 7.0, Safranin T reference.

Experiment [5] addresses T1, CraCRY. The experiment can be described thus: UV/vis absorption after incubation and gel filtration. Particulars: synthetic 8-HDF, 100 µM with 20 µM protein, on ice; secondary pocket, antenna chromophore; protein holds FAD. For orientation: SEC sorts molecules by how far they enter the pores of the column.
The target in experiment [6] is T2, Xl64. Described as above. The settings on record: synthetic 8-HDF, 100 µM with 20 µM protein, on ice; secondary pocket, antenna chromophore; protein holds FAD.

Consider `Cc1cc2nc3c(=O)[nH]c(=O)nc-3n(C[C@H](O)[C@H](O)[C@H](O)COP(=O)(O)OP(=O)(O)OC[C@H]3O[C@@H](n4cnc5c(N)ncnc54)[C@H](O)[C@@H]3O)c2cc1C` [FAD, flavin adenine dinucleotide], for which the “UV/vis spectroscopy of purified holoprotein; xanthine/xanthine oxidase redox tit” value was “the Em,FAD values of the tested proteins (Xl64, At64, and CraCRY) were identical” on CraCRY [1]; “the Em,FAD values of the tested proteins (Xl64, At64, and CraCRY) were identical” at Xl64 [2]; “the Em,FAD values of the tested proteins (Xl64, At64, and CraCRY) were identical” on At64 [3]; “the deletion of the extended loop did not affect the FAD binding site” on At64 [4].

As for `O=c1nc2n(C[C@H](O)[C@H](O)[C@H](O)CO)c3cc(O)ccc3cc-2c(=O)[nH]1` [8-HDF, 8-hydroxy-7,8-didemethyl-5-deazariboflavin], the “absorption maximum of the complex” value at CraCRY [5] came to 448 nm; at Xl64 [6] it was 441 nm.
